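In this assay, cells in 96-well plates receive the compound at five concentrations for 48 hours. Endpoints are linearly interpolated between the surrounding concentrations. At the GI50, growth is halved. TGI marks complete inhibition of growth.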
Key:
Assay in all cases: NCI anticancer screen, dose series, 48 h
RXF 393 renal = test system: RXF 393 renal
MDA-MB-435 = test system: MDA-MB-435
NCI-H522 lung = test system: NCI-H522 lung
PC-3 prostate = test system: PC-3 prostate
MCF7 breast = test system: MCF7 breast
K-562 leukemia = test system: K-562 leukemia
HCC-2998 colon = test system: HCC-2998 colon
CCRF-CEM leukemia = test system: CCRF-CEM leukemia
SF-539 CNS = test system: SF-539 CNS
UO-31 renal = test system: UO-31 renal
RPMI-8226 leukemia = test system: RPMI-8226 leukemia
SF-295 CNS = test system: SF-295 CNS
OVCAR-4 ovarian = test system: OVCAR-4 ovarian
SK-MEL-2 melanoma = test system: SK-MEL-2 melanoma
A549 NSCLC = test system: A549 NSCLC
HT29 colon = test system: HT29 colon
TK-10 renal = test system: TK-10 renal
ACHN renal = test system: ACHN renal
UACC-257 melanoma = test system: UACC-257 melanoma
COLO 205 colon = test system: COLO 205 colon
LOX IMVI melanoma = test system: LOX IMVI melanoma
OVCAR-3 ovarian = test system: OVCAR-3 ovarian
SNB-75 CNS = test system: SNB-75 CNS
OVCAR-5 ovarian = test system: OVCAR-5 ovarian
NCI-H226 lung = test system: NCI-H226 lung
KM12 colon = test system: KM12 colon
MDA-MB-231 breast = test system: MDA-MB-231 breast
SN12C renal = test system: SN12C renal
HS 578T breast = test system: HS 578T breast
MALME-3M melanoma = test system: MALME-3M melanoma
UACC-62 melanoma = test system: UACC-62 melanoma
CAKI-1 renal = test system: CAKI-1 renal
IGROV1 ovarian = test system: IGROV1 ovarian
HCT-116 colon = test system: HCT-116 colon
M14 melanoma = test system: M14 melanoma
SK-MEL-5 melanoma = test system: SK-MEL-5 melanoma
T-47D breast = test system: T-47D breast
NCI-H460 lung = test system: NCI-H460 lung
HOP-62 NSCLC = test system: HOP-62 NSCLC
SR leukemia = test system: SR leukemia
MDA-MB-468 breast = test system: MDA-MB-468 breast
DU-145 prostate = test system: DU-145 prostate
SW-620 colon = test system: SW-620 colon
HL-60(TB) leukemia = test system: HL-60(TB) leukemia
OVCAR-8 ovarian = test system: OVCAR-8 ovarian
MOLT-4 leukemia = test system: MOLT-4 leukemia
NCI-H23 lung = test system: NCI-H23 lung
SK-OV-3 ovarian = test system: SK-OV-3 ovarian
SK-MEL-28 melanoma = test system: SK-MEL-28 melanoma
U251 CNS = test system: U251 CNS
HCT-15 colon = test system: HCT-15 colon
A498 renal = test system: A498 renal
BT-549 breast = test system: BT-549 breast
SNB-19 CNS = test system: SNB-19 CNS
SF-268 CNS = test system: SF-268 CNS
EKVX NSCLC = test system: EKVX NSCLC
786-0 renal = test system: 786-0 renal
NCI/ADR-RES ovarian = test system: NCI/ADR-RES ovarian
HOP-92 NSCLC = test system: HOP-92 NSCLC

Compound: O=C(NO)c1ccc(CNC(=O)[C@H]2Cc3c([nH]c4ccccc34)[C@H](c3ccccc3)N2)cc1
- GI50 (RXF 393 renal): 1.92 µM
- TGI (RXF 393 renal): 6.54 µM
- GI50 (MDA-MB-435): 3.26 µM
- TGI (MDA-MB-435): 13.5 µM
- GI50 (NCI-H522 lung): 0.685 µM
- TGI (NCI-H522 lung): 5.64 µM
- GI50 (PC-3 prostate): 5.39 µM
- TGI (PC-3 prostate): > 23.7 µM
- GI50 (MCF7 breast): 3.59 µM
- TGI (MCF7 breast): > 23.7 µM
- GI50 (K-562 leukemia): 1.38 µM
- TGI (K-562 leukemia): > 23.7 µM
- GI50 (HCC-2998 colon): 2.9 µM
- TGI (HCC-2998 colon): 6.91 µM
- GI50 (CCRF-CEM leukemia): 0.785 µM
- TGI (CCRF-CEM leukemia): > 23.7 µM
- GI50 (SF-539 CNS): 3.73 µM
- TGI (SF-539 CNS): > 23.7 µM
- GI50 (UO-31 renal): 5.58 µM
- TGI (UO-31 renal): > 23.7 µM
- GI50 (RPMI-8226 leukemia): 1.35 µM
- TGI (RPMI-8226 leukemia): > 23.7 µM
- GI50 (SF-295 CNS): 3.34 µM
- TGI (SF-295 CNS): 7.89 µM
- GI50 (OVCAR-4 ovarian): 8.3 µM
- TGI (OVCAR-4 ovarian): > 23.7 µM
- GI50 (SK-MEL-2 melanoma): 3.66 µM
- TGI (SK-MEL-2 melanoma): 14.6 µM
- GI50 (A549 NSCLC): 6.77 µM
- TGI (A549 NSCLC): > 23.7 µM
- GI50 (HT29 colon): 3.29 µM
- TGI (HT29 colon): 18 µM
- GI50 (TK-10 renal): 2.88 µM
- TGI (TK-10 renal): 19.2 µM
- GI50 (ACHN renal): 5 µM
- TGI (ACHN renal): 16.2 µM
- GI50 (UACC-257 melanoma): 1.43 µM
- TGI (UACC-257 melanoma): 15.9 µM
- GI50 (COLO 205 colon): 2.36 µM
- TGI (COLO 205 colon): 5.57 µM
- GI50 (LOX IMVI melanoma): 3.35 µM
- TGI (LOX IMVI melanoma): 6.43 µM
- GI50 (OVCAR-3 ovarian): 2.51 µM
- TGI (OVCAR-3 ovarian): 12.6 µM
- GI50 (SNB-75 CNS): 1.99 µM
- TGI (SNB-75 CNS): > 23.7 µM
- GI50 (OVCAR-5 ovarian): 1.42 µM
- TGI (OVCAR-5 ovarian): 6.84 µM
- GI50 (NCI-H226 lung): 2.7 µM
- TGI (NCI-H226 lung): > 23.7 µM
- GI50 (KM12 colon): 5.01 µM
- TGI (KM12 colon): > 23.7 µM
- GI50 (MDA-MB-231 breast): 3.53 µM
- TGI (MDA-MB-231 breast): 12.4 µM
- GI50 (SN12C renal): 5.27 µM
- TGI (SN12C renal): 23.5 µM
- GI50 (HS 578T breast): 1.38 µM
- TGI (HS 578T breast): 21.8 µM
- GI50 (MALME-3M melanoma): 0.545 µM
- TGI (MALME-3M melanoma): > 23.7 µM
- GI50 (UACC-62 melanoma): 1.13 µM
- TGI (UACC-62 melanoma): 4.64 µM
- GI50 (CAKI-1 renal): 5.69 µM
- TGI (CAKI-1 renal): 16.6 µM
- GI50 (IGROV1 ovarian): 3.71 µM
- TGI (IGROV1 ovarian): 15.2 µM
- GI50 (HCT-116 colon): 1.13 µM
- TGI (HCT-116 colon): > 23.7 µM
- GI50 (M14 melanoma): 5.93 µM
- TGI (M14 melanoma): > 23.7 µM
- GI50 (SK-MEL-5 melanoma): 2.66 µM
- TGI (SK-MEL-5 melanoma): 5.93 µM
- GI50 (T-47D breast): 1.03 µM
- TGI (T-47D breast): 9.84 µM
- GI50 (NCI-H460 lung): 3.59 µM
- TGI (NCI-H460 lung): > 23.7 µM
- GI50 (HOP-62 NSCLC): 3.6 µM
- TGI (HOP-62 NSCLC): 13.1 µM
- GI50 (SR leukemia): 0.449 µM
- TGI (SR leukemia): > 23.7 µM
- GI50 (MDA-MB-468 breast): 0.507 µM
- TGI (MDA-MB-468 breast): 2.33 µM
- GI50 (DU-145 prostate): 4.06 µM
- TGI (DU-145 prostate): > 23.7 µM
- GI50 (SW-620 colon): 2.31 µM
- TGI (SW-620 colon): 7.76 µM
- GI50 (HL-60(TB) leukemia): 3 µM
- TGI (HL-60(TB) leukemia): > 23.7 µM
- GI50 (OVCAR-8 ovarian): 1.43 µM
- TGI (OVCAR-8 ovarian): > 23.7 µM
- GI50 (MOLT-4 leukemia): 0.763 µM
- TGI (MOLT-4 leukemia): > 23.7 µM
- GI50 (NCI-H23 lung): 4.71 µM
- TGI (NCI-H23 lung): 18.3 µM
- GI50 (SK-OV-3 ovarian): 3.28 µM
- TGI (SK-OV-3 ovarian): 11.3 µM
- GI50 (SK-MEL-28 melanoma): 3.13 µM
- TGI (SK-MEL-28 melanoma): 22 µM
- GI50 (U251 CNS): 2.78 µM
- TGI (U251 CNS): 12.9 µM
- GI50 (HCT-15 colon): 11.8 µM
- TGI (HCT-15 colon): > 23.7 µM
- GI50 (A498 renal): 2.46 µM
- TGI (A498 renal): 11.7 µM
- GI50 (BT-549 breast): 14.2 µM
- TGI (BT-549 breast): > 23.7 µM
- GI50 (SNB-19 CNS): 5.19 µM
- TGI (SNB-19 CNS): > 23.7 µM
- GI50 (SF-268 CNS): 5.5 µM
- TGI (SF-268 CNS): > 23.7 µM
- GI50 (EKVX NSCLC): 8.42 µM
- TGI (EKVX NSCLC): > 23.7 µM
- GI50 (786-0 renal): 9.15 µM
- TGI (786-0 renal): > 23.7 µM
- GI50 (NCI/ADR-RES ovarian): 5.72 µM
- TGI (NCI/ADR-RES ovarian): > 23.7 µM
- GI50 (HOP-92 NSCLC): 1.59 µM
- TGI (HOP-92 NSCLC): 12.4 µM
